This is an account of results in patent US20080139545A1, “FORMULATION TO TREAT EAR INFECTION” (priority 2006, published 2008).

Data set [1] can be described thus: conventional treatments of the same patients before NAC (case histories). The class given is in vivo, human. As to conditions: for response of effusion, tube plugging and otorrhea to conventional treatment: patient one (Example 4), 2002-2005, topical or oral.
Test in data set [2]: as above
The class given is in vivo, human. An excerpt: They developed vertigo and bilateral otalgia in 1997, and presented to our practice. Given their prior history, they underwent an extensive workup from the outset. […] They underwent right-sided T tube placement for chronic Eustachian tube dysfunction in October 1997, with marked improvement of their pressure and fullness. However, they developed intermittent otorrhea, for which they received topical Tobradex. In November, the tube plugged completely, and they underwent tube replacement. Findings were notable for thick mucus filling the middle ear space. […] They underwent a right sided mastoidectomy with tube exchange in December 1997, with intraoperative findings notable for an inflamed mastoid cavity with several areas of cholesterol granuloma, as well as complete aditus blockade.
They continued to have thick, “taupe”-colored otorrhea after surgery. Considering their failure to respond to therapy, the differential was widened. Their evaluations for immunodeficiency and autoimmune pathology were negative. They underwent multiple TT placements and exchanges, as well as a negative culture and a wide laser tympanotomy in June 1998. The tympanotomy afforded them a brief hiatus from drainage from July through August. […] They also required office debridements every week or alternate week until they underwent a revision tympanomastoidectomy in October 1998. Intraoperative findings were notable for a clear mastoid, but a middle ear full of thick mucopurulence and edematous mucosa. The KTP laser was used to widen the tympanotomy and to ablate the middle ear mucosa to the Eustachian tube. Intraoperative cultures returned negative. Their course improved considerably, with only mild intermittent infections through July 1999. However, they were then diagnosed with breast cancer, which was treated with a modified radical mastectomy and adjuvant chemoradiation.
As they were completing their chemotherapy, they redeveloped the same otorrhea, which was treated with continuous, suppressive Floxin drops as well as frequent office debridements. They developed a mastoid abscess in March 2000, for which they underwent a repeat revision mastoidectomy. Preoperative CT imaging raised the concern for osteomyelitis. Intraoperative findings were notable for purulence in the mastoid and subcutaneous tissues, which were debrided widely. Intraoperative cultures returned penicillin-resistant, but otherwise pan-sensitive Staphylococcus aureus. Their otorrhea resumed in April after a brief hiatus. […] They continued to require office debridements on alternate weeks.
They had brief episodes of otorrhea in November 2001, and February and May 2002, which were treated easily with ototopicals.
Their otorrhea restarted in February 2003. They were begun on alternating courses of topical ciprofloxacin and Tobradex, oral azithromycin and metronidazole, as well as office debridements every week or alternating week. […] An infectious disease consultation was obtained, and they were started on high dose Septra per recommendations. […] A followup culture in October was negative.
Given their continued otorrhea, they underwent a revision modified radical tympanomastoidectomy in November 2004, with intraoperative findings notable for a large cholesterol granuloma extending from the mastoid tip to the retrosigmoid region towards the occiput. They had frank purulence in the epi-, pro-, and hypotympanum. The middle ear was packed with Zyvox-soaked Gelfoam. […] After a brief respite, their otorrhea restarted the following month. […] Multiple cultures returned negative except for occasional colonies of Candida albicans.
patient four is a diabetic with a history of frequent ear infections as a child. They developed ear plugging in May 2004, and was treated with oral antibiotics for otitis media. […] However, they developed chronic otorrhea after tube placement, which persisted despite multiple courses of oral and topical antibiotics. The TT was removed in September, after which they developed a chronic serous effusion. […]

The nature of data set [3]: off-label treatment of patients with Ciprodex augmented with 2% NAC (case reports). The class given is in vivo, human. As to conditions: patient two (Example 1), oral, for presumed fungal superinfection. An excerpt: These patients responded uniformly to the compositions of the present invention. All treated ears ceased to drain within 1-2 weeks of adequate treatment. No ototoxicity was documented by either patient report or audiometry.
Given their multiple treatment failures, they were started at this point on Ciprodex augmented with 2% NAC. Verbal informed consent was obtained prior to starting treatment, and they were continued on oral Zyvox. […] They were given a fresh mixture of NAC with Ciprodex, and their otorrhea and middle ear fluid resolved one week later. […] They have been refrigerating the medication between uses, and hand warming the solution before application.
In November 2005, SG underwent a two week course of topical Ciprodex augmented with 2% NAC. Verbal informed consent was obtained prior to starting treatment.
At this point, BT was started on a two week course of topical Ciprodex augmented with 2% NAC. Verbal informed consent was obtained prior to starting treatment.
In November 2005, DL was started on a two week course of topical Ciprodex augmented with 2% NAC. Verbal informed consent was obtained prior to starting treatment. […] The same solution was insufflated into the ear after an aggressive debridement, and they were started on another two week course. The patient traveled abroad for one month, and returned in January 2006. […]

The test system of data set [4] is Moraxella catarrhalis. The settings on record: concentrations of 0.003% to 0.8%; cited from earlier work.
Data set [5] deals with Streptococcus pneumoniae. The settings on record: concentrations of 0.003% to 0.8%; cited from earlier work.
The conditions of data set [6]: high first pass metabolism through the liver; cited from earlier work.
Data set [7] relates to Haemophilus influenzae. As to conditions: concentrations of 0.003% to 0.8%; cited from earlier work.
For data set [8] the following is noted: applied topically to children at a concentration of 2%; cited from earlier work.
Data set [9] concerns Pseudomonas cultures. As to conditions: cited from earlier work.
The conditions of data set [10]: topical NAC, rabbit model of otitis media; cited from earlier work.
For data set [11], the system named is cochlear outer hair cell (OHC). As to conditions: multiple studies; cited from earlier work.
Data set [12] deals with Staphylococcus epidermidis. As to conditions: concentrations of 0.003% to 0.8%; cited from earlier work.
The conditions of data set [13]: NAC at a concentration of 0.1%; cited from earlier work.
The conditions of data set [14]: topical NAC, rat model of otitis media; cited from earlier work.
For data set [15], the system named is cochlear outer hair cell (OHC). The settings on record: co-administration with NAC at 0.017%; cited from earlier work.
The conditions of data set [16]: administered via transtympanic iontopheresis; cited from earlier work.
Data set [17] deals with polymicrobial cultures. As to conditions: concentrations of 0.003% to 0.8%; cited from earlier work.
The test system of data set [18] is Bacillus species. The settings on record: concentrations of 0.003% to 0.8%; cited from earlier work.
In data set [19] the test system is Klebsiella pneumoniae. As to conditions: concentrations of 0.003% to 0.8%; cited from earlier work.
For data set [20], the system named is Escherichia coli. As to conditions: concentrations of 0.003% to 0.8%; cited from earlier work.
Where [21] appears, read: patient two (Example 1), 1997-2005, topical or oral as stated.

Each structure is given as a SMILES string. “Also recorded” adds a separate entry of the source. Where two headings read alike, the source gives them in different places.

Take `O=C(O)c1cn(C2CC2)c2cc(N3CCNCC3)c(F)cc2c1=O` [ciprofloxacin drops, 1-cyclopropyl-6-fluoro-1,4-dihydro-4-oxo-7-(1-piperazinyl)-3-quinolinecarboxylic acid]: the “response of effusion, tube plugging and otorrhea to conventional treatment” value (from here on “response of effusion”) in data set [1] was “effusion and plugging continued; also recorded: tube plugging and otorrhea continued”. The “response of otorrhea/effusion to conventional treatment” value in [1] (patient three (Example 3), 2005, topical or oral as stated) is on record as “developed recurrent otorrhea on the right side”. The “response of otorrhea to conventional treatment” value in [2] (setting [21]) was “continued to drain through December; also recorded: failed to respond; also recorded: otorrhea resolved”; in [2] (patient two (Example 1), 1997-2005, topical or oral as stated, listed as ciprofloxacin), “symptoms continued essentially unabated”.

Regarding `CN[C@@H](C)[C@@H](O)c1ccccc1` [Sudafed], the “response of effusion” value in data set [1] was “effusion and plugging continued”.

On to `Cc1ncc([N+](=O)[O-])n1CCO` [Flagyl, 2-Methyl-5-nitro-imidazole-1-ethanol], for which the “response of otorrhea to conventional treatment” value in data set [2] (patient four (Example 2), 2004-2005, topical or oral as stated) is given as “otorrhea persisted”; in [2] (setting [21]), “symptoms continued essentially unabated”.

Regarding `CC1COc2c(N3CCN(C)CC3)c(F)cc3c(=O)c(C(=O)O)cn1c23` (racemic) [Floxin, (±)-9-fluoro-2,3-dihydro-3-methyl-10-(4-methyl-1-piperazinyl)-7-oxo-7H-pyrido[1,3,3-de]-1,4-benzoxazine-6-carboxylic acid], in data set [1], the “response of effusion” value is listed as “continued essentially unchanged”.

In the case of `CN(C/C=C/C#CC(C)(C)C)Cc1cccc2ccccc12.Cl` [Lamisil, (E)-N-(6,6-dimethyl-2-hepten-4-ynyl)-N-methyl-1-naphthalenemethanamine hydrochloride], the tolerability entry in data set [3] is recorded as “could tolerate only three days of treatment secondary to gastrointestinal side effects”.

For the compound `CC[C@H]1OC(=O)[C@H](C)[C@@H](O[C@H]2C[C@@](C)(OC)[C@@H](O)[C@H](C)O2)[C@H](C)[C@@H](O[C@@H]2O[C@H](C)C[C@H](N(C)C)[C@H]2O)[C@](C)(OC)C[C@@H](C)C(=O)[C@H](C)[C@@H](O)[C@]1(C)O` [Biaxin, 6-O-methylerythromycin], the “response of otorrhea to conventional treatment” value in data set [2] (setting [21]) is reported as “failed to respond”.

With `CC(=O)N[C@@H](CS)C(=O)O` [NAC, N-acetylcysteine], in data set [4], the “adherence of Moraxella catarrhalis to human pharyngeal cells” value is on record as “reduces the adherence”. Moreover, the “adherence of Streptococcus pneumoniae to human oropharyngeal cells” value in [5] is listed as “reduces the adherence”. For the same compound, the oral bioavailability in [6] is 5-10%. Further, in data set [7], the “adherence of Haemophilus influenzae to mucus and human oropharyngeal cells” value was “reduces the adherence”. In addition, in [8], the “TT reinsertion, recurrence of otitis media, need for physician visits” value is “decreases” and the “tympanostomy tube (TT) longevity” value was “increases”. In addition, the “killing of Pseudomonas cultures” value in data set [9] (NAC administered alone, concentration of only 0.002%) is on record as 95%. The “decrease of the efficacy of aminoglycoside antibiotics” value in data set [9] (combination with aminoglycoside antibiotics) was 2-16 fold. In addition, the “interaction with ticarcillin and carbenicillin” value in data set [9] (combination with ticarcillin and carbenicillin) is listed as “strong synergy”. Also, in [10], the “fibroblast proliferation, collagen synthesis, and inflammatory markers” value is “Marked reductions”; the tympanic membrane scarring result is on record as “effectively reduced this scarring”. Moreover, the “protection against oxidative OHC damage from cisplatin or aminoglycosides” value in [11] is on record as “protect against oxidative OHC damage”. In [12], the “adherence of Staphylococcus epidermidis to polystyrene” value is “reduces the adherence”. Besides, the viscosity reductions in [13] is listed as 21-39%. In data set [14], the “fibroblast proliferation, collagen synthesis, and inflammatory markers” value is on record as “Marked reductions”; the tympanic membrane scarring result was “effectively reduced this scarring”. For the same compound, in data set [15], the “hydrogen peroxide-mediated damage to OHCs” value is “completely prevented”. Further, the “clearance of thick middle ear effusions” value in [16] was “may speed the clearance”. Further, the “adherence of polymicrobial cultures to stainless steel and tracheoesophageal puncture prostheses” value in data set [17] is listed as “reduces the adherence”. Also, the “adherence of Bacillus species to stainless steel” value in data set [18] is reported as “reduces the adherence”. Also, the “adherence of Klebsiella pneumoniae to polystyrene” value in [19] is “reduces the adherence”. For the same compound, the “adherence of Escherichia coli to polystyrene” value in [20] is “reduces the adherence”.

For `CN[C@H](CC(C)C)C(=O)N[C@H]1C(=O)N[C@@H](CC(N)=O)C(=O)N[C@H]2C(=O)N[C@H]3C(=O)N[C@H](C(=O)N[C@H](C(=O)O)c4cc(O)cc(O)c4-c4cc3ccc4O)[C@H](O)c3ccc(c(Cl)c3)Oc3cc2cc(c3O[C@@H]2O[C@H](CO)[C@@H](O)[C@H](O)[C@H]2O[C@H]2C[C@](C)(N)[C@H](O)[C@H](C)O2)Oc2ccc(cc2Cl)[C@H]1O` [vancomycin], in data set [2] (setting [21]), the “response of otorrhea to conventional treatment” value was “some improvement”.

Turning to `CC[C@H]1OC(=O)[C@H](C)[C@@H](O[C@H]2C[C@@](C)(OC)[C@@H](O)[C@H](C)O2)[C@H](C)[C@@H](O[C@@H]2O[C@H](C)C[C@H](N(C)C)[C@H]2O)[C@](C)(O)C[C@@H](C)CN(C)[C@H](C)[C@@H](O)[C@]1(C)O` [azithromycin], the “response of effusion” value in data set [1] is “effusion and plugging continued; also recorded: continued essentially unchanged”. For the same compound, in data set [2] (setting [21]), the “response of otorrhea to conventional treatment” value is recorded as “symptoms continued essentially unabated”.

`O=C(N[C@H](CO)[C@H](O)c1ccc([N+](=O)[O-])cc1)C(Cl)Cl` [chloramphenicol]: in data set [2] (setting [21]), the “response of otorrhea to conventional treatment” value is recorded as “failed to respond”.
